Reference: ChEMBL document CHEMBL4651402, “Screening of ~5500 FDA-approved drugs and clinical candidates for anti-SARS-CoV-2 activity” (2021)
pIC50: −log10 of the molar value.

Test system: SARS-CoV-2
Experiment: microbe, parasite or virus in culture
Settings: Severe acute respiratory syndrome coronavirus 2, Vero C1008, 48 h; for IC50: read-out: pIC50 (converted)

Structure (SMILES)	pIC50	IC50
Oc1nc(O)c2cn[nH]c2n1 [OXYPURINOL]	< 4.70	> 20 µM
O=c1c(O)c(-c2ccc(O)c(O)c2)oc2cc(O)cc(O)c12 [QUERCETIN]	< 4.70	> 20 µM
CNCCCN1c2ccccc2CCc2ccccc21 [DESIPRAMINE]	< 4.70	> 20 µM
CC(C)COCC(CN(Cc1ccccc1)c1ccccc1)N1CCCC1 (configuration not stated) [BEPRIDIL]	< 4.70	> 20 µM
O=C(O)c1cccc(-c2noc(-c3ccccc3F)n2)c1	< 4.70	> 20 µM
CCN(CC)C(=O)N[C@H]1C=C2c3cccc4[nH]c(Br)c(c34)C[C@H]2N(C)C1 [BROMERGURIDE]	< 4.70	> 20 µM
N[C@@H](C(=O)O)[C@@H](O)[C@H](O)[C@H](O)CO [GLUCOSAMINIC ACID]	< 4.70	> 20 µM
C[C@H]1c2cccc(O)c2C(=O)C2=C(O)[C@]3(O)C(=O)C(C(N)=O)=C(O)[C@@H](N(C)C)[C@@H]3[C@@H](O)[C@@H]21 [DOXYCYCLINE]	< 4.70	> 20 µM
CC/C(=C(\c1ccc(OCCN(C)C)cc1)c1cccc(O)c1)c1ccccc1	< 4.70	> 20 µM
CC12C=CC(=O)C=C1CCC1C2C(O)CC2(C)C1CC[C@]2(O)C(=O)COC(=O)CCC(=O)O (some centres not stated)	< 4.70	> 20 µM
CN(C(=O)c1ccc(F)cc1C(F)(F)F)C1CCN(c2nnc(-c3ccnn3C)c3ccccc23)CC1 [TALADEGIB]	< 4.70	> 20 µM
COC(c1ccccc1)(c1ccccc1)[C@H](Oc1nc(C)cc(C)n1)C(=O)O [AMBRISENTAN]	< 4.70	> 20 µM
O=C1O[C@@H]([C@@H](O)CO)C(O)=C1O	< 4.70	> 20 µM
COc1ccccc1CN[C@H]1CCCN[C@H]1c1ccccc1 [CP-99994]	< 4.70	> 20 µM
CC1(C)O[C@@H]2[C@@H](CO[C@@]3(COS(N)(=O)=O)OC(C)(C)O[C@@H]23)O1 [TOPIRAMATE]	< 4.70	> 20 µM
C[N+]1(C)CCCC1COC(=O)C(O)(c1ccccc1)c1ccccc1 (configuration not stated) [POLDINE]	< 4.70	> 20 µM
COc1cc2c(cc1OC)[C@@H]1C(=O)c3ccc4c(c3O[C@@H]1CO2)CC(C(C)C)O4 (some centres not stated) [DIHYDROROTENONE]	< 4.70	> 20 µM
Cn1cnc2c(F)c(Nc3ccc(Br)cc3Cl)c(C(=O)NOCCO)cc21 [SELUMETINIB]	< 4.70	> 20 µM

Structure (SMILES)	pIC50	IC50
O=C(O)CC/C=C/CCC1C(OCc2ccc(-c3ccccc3)cc2)CC(O)C1N1CCCCC1 (configuration not stated)	< 4.70	> 20 µM
CCn1c(=O)c2c(nc(/C=C/c3ccc(OC)c(OC)c3)n2C)n(CC)c1=O [ISTRADEFYLLINE]	< 4.70	> 20 µM
COc1ccc2c3c1OC1C(O)CCC4C(C2)N(C)CCC341 (configuration not stated)	< 4.70	> 20 µM
CC(C)CCCCCCCCCCCCCCC(=O)O	< 4.70	> 20 µM
C[C@@H]1C[C@H]2[C@@H]3CCC4=CC(=O)C=C[C@]4(C)[C@@]3(F)[C@@H](O)C[C@]2(C)[C@@]1(O)C(=O)CO [DEXAMETHASONE]	< 4.70	> 20 µM
Cc1ccc(Cc2cc3c(=O)n([C@H]4CCCC[C@@H]4O)cnc3c3ccccc23)cn1 [MK-7622]	< 4.70	> 20 µM
O=C(O)c1ccccc1 [BENZOIC ACID]	< 4.70	> 20 µM
CC[C@@H](C)n1ncn(-c2ccc(N3CCN(c4ccc(OC[C@H]5CO[C@@](Cn6cncn6)(c6ccc(F)cc6F)O5)cc4)CC3)cc2)c1=O	< 4.70	> 20 µM
C[C@@H]1NC(=O)C2(CCCC2)NC1=O	< 4.70	> 20 µM
Nc1c(Br)cc(Br)cc1CN[C@H]1CC[C@H](O)CC1 [AMBROXOL]	< 4.70	> 20 µM
c1ccc2c(c1)CCCC2C1=NCCN1 (configuration not stated) [TETRAHYDROZOLINE]	< 4.70	> 20 µM
c1ccc2c(c1)OCC(C1=NCCN1)O2 (configuration not stated) [IDAZOXAN]	< 4.70	> 20 µM
CC(COc1ccccc1)NC(C)C(O)c1ccc(O)cc1 (configuration not stated) [ISOXSUPRINE]	< 4.70	> 20 µM
COc1cc(C)c2c(c1C=O)Oc1c(c(C)c(O)c3c1[C@H](O)OC3=O)OC2=O	< 4.70	> 20 µM
CN1N=C(N)c2cn(C3OC(COP(=O)(O)O)C(O)C3O)c3ncnc1c23 (configuration not stated)	< 4.70	> 20 µM
OC[C@H]1O[C@@H]2O[C@H]3[C@H](O)[C@@H](O)[C@@H](O[C@H]4[C@H](O)[C@@H](O)[C@@H](O[C@H]5[C@H](O)[C@@H](O)[C@@H](O[C@H]6[C@H](O)[C@@H](O)[C@@H](O[C@H]7[C@H](O)[C@@H](O)[C@@H](O[C@H]8[C@H](O)[C@@H](O)[C@@H](O[C@H]9[C@H](O)[C@@H](O)[C@@H](O[C@H]1[C@H](O)[C@H]2O)O[C@@H]9CO)O[C@@H]8CO)O[C@@H]7CO)O[C@@H]6CO)O[C@@H]5CO)O[C@@H]4CO)O[C@@H]3CO [GAMMA-CYCLODEXTRIN]	< 4.70	> 20 µM
Nc1c2c(nc3c1CCC3)CCCC2 [IPIDACRINE]	< 4.70	> 20 µM
COC1=C(OC)C(=O)C(C/C=C(\C)CC/C=C(\C)CC/C=C(\C)CC/C=C(\C)CC/C=C(\C)CC/C=C(\C)CC/C=C(\C)CC/C=C(\C)CC/C=C(\C)CCC=C(C)C)=C(C)C1=O [UBIDECARENONE]	< 4.70	> 20 µM
